What all share (experiment): relative viability (nuclei count vs DMSO), 5 days (fraction); higher = more cells survive
Compound in the experiment “Erlotinib + Decitabine”: C#Cc1cccc(Nc2ncnc3cc(OCCOC)c(OCCOC)cc23)c1 [Erlotinib] + Nc1ncn([C@H]2C[C@H](O)[C@@H](CO)O2)c(=O)n1 [Decitabine] (partner 2 µM)
The method in brief: (§1)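 Lung cancer cell lines were pin-tool dosed in 1536-well plates on the day after seeding, with either a lone drug or a fixed anchor-drug dose plus five library-drug doses (not always all listed) in √10 steps. Nuclei were counted on 4× images after 5 days. Relative viability is the ratio of treated-well to vehicle-well nuclei counts, with each value a median of duplicate plates.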

Compound in the experiment “AT9283 + Navitoclax”: O=C(Nc1c[nH]nc1-c1nc2ccc(CN3CCOCC3)cc2[nH]1)NC1CC1 [AT9283] + CC1(C)CCC(c2ccc(Cl)cc2)=C(CN2CCN(c3ccc(C(=O)NS(=O)(=O)c4ccc(N[C@H](CCN5CCOCC5)CSc5ccccc5)c(S(=O)(=O)C(F)(F)F)c4)cc3)CC2)C1 [Navitoclax] (partner 0.5 µM)
An outline of the steps:
as §1

Compound in the experiment “AT9283 + Pictilisib”: O=C(Nc1c[nH]nc1-c1nc2ccc(CN3CCOCC3)cc2[nH]1)NC1CC1 [AT9283] + CS(=O)(=O)N1CCN(Cc2cc3nc(-c4cccc5[nH]ncc45)nc(N4CCOCC4)c3s2)CC1 [Pictilisib] (partner 1 µM)
The method in brief: as §1

Compound in the experiment “AT9283 + AZD7762”: O=C(Nc1c[nH]nc1-c1nc2ccc(CN3CCOCC3)cc2[nH]1)NC1CC1 [AT9283] + NC(=O)Nc1cc(-c2cccc(F)c2)sc1C(=O)N[C@H]1CCCNC1 [AZD7762] (partner 0.2 µM)
The method in brief:
as §1

Compound in the experiment “AT9283 + Vorinostat”: O=C(Nc1c[nH]nc1-c1nc2ccc(CN3CCOCC3)cc2[nH]1)NC1CC1 [AT9283] + O=C(CCCCCCC(=O)Nc1ccccc1)NO [Vorinostat] (partner 1 µM)
An outline of the steps: as §1

Drawing on the supplement of paper PMC10307832, this text covers relative viability for 7 cell lines.

For the cell line NCI-H1355, the relative viability in the experiment with Erlotinib + Decitabine (first compound 0.02 µM) was found to be 0.394; in the experiment with Erlotinib + Decitabine (first compound 0.2 µM), 0.315; with Erlotinib + Decitabine (first compound 0.6325 µM), 0.322; with Erlotinib + Decitabine (first compound 2 µM), 0.341; with AT9283 + Navitoclax (first compound 0.003 µM), 1.07; in the experiment with AT9283 + Navitoclax (first compound 0.03 µM) it was 0.806. In addition, the relative viability in the experiment with AT9283 + Navitoclax (first compound 0.09487 µM) was 0.46; in the experiment with AT9283 + Navitoclax (first compound 0.3 µM), 0.158; in the experiment with AT9283 + Pictilisib (first compound 0.003 µM) it was 0.435; in the experiment with AT9283 + Pictilisib (first compound 0.03 µM) it was 0.345; with AT9283 + Pictilisib (first compound 0.09487 µM), 0.168; in the experiment with AT9283 + Pictilisib (first compound 0.3 µM), 0.159. Besides, the relative viability in the experiment with AT9283 + AZD7762 (first compound 0.003 µM) came out at 0.9; with AT9283 + AZD7762 (first compound 0.03 µM) it was 0.568; with AT9283 + AZD7762 (first compound 0.09487 µM) it was 0.602; with AT9283 + AZD7762 (first compound 0.3 µM), 0.23; with AT9283 + Vorinostat (first compound 0.003 µM) it was 0.602; in the experiment with AT9283 + Vorinostat (first compound 0.03 µM), 0.452. For the same cell line, the relative viability with AT9283 + Vorinostat (first compound 0.09487 µM) turned out to be 0.388; in the experiment with AT9283 + Vorinostat (first compound 0.3 µM), 0.169.

As for A-427, the relative viability in the experiment with Erlotinib + Decitabine (first compound 0.02 µM) worked out at 0.585; in the experiment with Erlotinib + Decitabine (first compound 0.2 µM) it was 0.562; in the experiment with Erlotinib + Decitabine (first compound 0.6325 µM) it was 0.592; with Erlotinib + Decitabine (first compound 2 µM), 0.582; in the experiment with AT9283 + Navitoclax (first compound 0.003 µM), 1.05; with AT9283 + Navitoclax (first compound 0.03 µM), 0.691. For the same cell line, the relative viability with AT9283 + Navitoclax (first compound 0.09487 µM) was found to be 0.174; in the experiment with AT9283 + Navitoclax (first compound 0.3 µM), 0.167; with AT9283 + Pictilisib (first compound 0.003 µM) it was 0.744; with AT9283 + Pictilisib (first compound 0.03 µM), 0.606; with AT9283 + Pictilisib (first compound 0.09487 µM), 0.19; with AT9283 + Pictilisib (first compound 0.3 µM), 0.208. The relative viability is 0.675 with AT9283 + AZD7762 (first compound 0.003 µM); 0.306 with AT9283 + AZD7762 (first compound 0.03 µM); 0.227 in the experiment with AT9283 + AZD7762 (first compound 0.09487 µM); 0.269 with AT9283 + AZD7762 (first compound 0.3 µM); 0.902 with AT9283 + Vorinostat (first compound 0.003 µM); 0.471 in the experiment with AT9283 + Vorinostat (first compound 0.03 µM). For the same cell line, the relative viability was 0.269 in the experiment with AT9283 + Vorinostat (first compound 0.09487 µM) and 0.323 with AT9283 + Vorinostat (first compound 0.3 µM).

Take NCI-H2170: the relative viability stood at 0.542 in the experiment with Erlotinib + Decitabine (first compound 0.02 µM); 0.492 in the experiment with Erlotinib + Decitabine (first compound 0.2 µM); 0.505 with Erlotinib + Decitabine (first compound 0.6325 µM); 0.419 in the experiment with Erlotinib + Decitabine (first compound 2 µM); 0.536 with AT9283 + Navitoclax (first compound 0.003 µM); 0.334 with AT9283 + Navitoclax (first compound 0.03 µM). In addition, the relative viability with AT9283 + Navitoclax (first compound 0.09487 µM) came out at 0.201; in the experiment with AT9283 + Navitoclax (first compound 0.3 µM), 0.179; with AT9283 + Pictilisib (first compound 0.003 µM), 0.309; in the experiment with AT9283 + Pictilisib (first compound 0.03 µM), 0.234; with AT9283 + Pictilisib (first compound 0.09487 µM) it was 0.176; in the experiment with AT9283 + Pictilisib (first compound 0.3 µM), 0.151. In addition, the relative viability with AT9283 + AZD7762 (first compound 0.003 µM) was 0.794; with AT9283 + AZD7762 (first compound 0.03 µM), 0.485; in the experiment with AT9283 + AZD7762 (first compound 0.09487 µM), 0.162; with AT9283 + AZD7762 (first compound 0.3 µM), 0.153; with AT9283 + Vorinostat (first compound 0.003 µM), 0.765; in the experiment with AT9283 + Vorinostat (first compound 0.03 µM) it was 0.514. Also, the values for the relative viability with AT9283 + Vorinostat (first compound 0.09487 µM) and with AT9283 + Vorinostat (first compound 0.3 µM) were 0.272 and 0.13, respectively.

Regarding NCI-H460, the relative viability was determined as 0.508 with Erlotinib + Decitabine (first compound 0.02 µM); 0.433 with Erlotinib + Decitabine (first compound 0.2 µM); 0.505 with Erlotinib + Decitabine (first compound 0.6325 µM); 0.47 with Erlotinib + Decitabine (first compound 2 µM); 1.23 in the experiment with AT9283 + Navitoclax (first compound 0.003 µM); 0.987 with AT9283 + Navitoclax (first compound 0.03 µM). Also, the relative viability with AT9283 + Navitoclax (first compound 0.09487 µM) stood at 0.0587; with AT9283 + Navitoclax (first compound 0.3 µM), 0.0315; with AT9283 + Pictilisib (first compound 0.003 µM), 0.305; in the experiment with AT9283 + Pictilisib (first compound 0.03 µM), 0.302; with AT9283 + Pictilisib (first compound 0.09487 µM) it was 0.0565; with AT9283 + Pictilisib (first compound 0.3 µM), 0.0907. In addition, the relative viability with AT9283 + AZD7762 (first compound 0.003 µM) was 0.543; in the experiment with AT9283 + AZD7762 (first compound 0.03 µM) it was 0.687; in the experiment with AT9283 + AZD7762 (first compound 0.09487 µM), 0.131; in the experiment with AT9283 + AZD7762 (first compound 0.3 µM), 0.11; in the experiment with AT9283 + Vorinostat (first compound 0.003 µM), 0.856; in the experiment with AT9283 + Vorinostat (first compound 0.03 µM) it was 0.639. Further, the results for the relative viability in the experiment with AT9283 + Vorinostat (first compound 0.09487 µM) and in the experiment with AT9283 + Vorinostat (first compound 0.3 µM) were 0.158 and 0.0711, respectively.

In the case of NCI-H2405, the relative viability in the experiment with Erlotinib + Decitabine (first compound 0.2 µM) was 0.706; in the experiment with Erlotinib + Decitabine (first compound 0.6325 µM), 0.647; in the experiment with Erlotinib + Decitabine (first compound 2 µM) it was 0.629; in the experiment with AT9283 + Navitoclax (first compound 0.003 µM), 1.05; with AT9283 + Navitoclax (first compound 0.03 µM), 0.31; with AT9283 + Navitoclax (first compound 0.09487 µM) it was 0.127. For the same cell line, the relative viability in the experiment with AT9283 + Navitoclax (first compound 0.3 µM) stood at 0.0943; in the experiment with AT9283 + Pictilisib (first compound 0.003 µM), 0.463; with AT9283 + Pictilisib (first compound 0.03 µM), 0.384; with AT9283 + Pictilisib (first compound 0.09487 µM) it was 0.254; with AT9283 + Pictilisib (first compound 0.3 µM), 0.145; with AT9283 + AZD7762 (first compound 0.003 µM) it was 0.771. The relative viability was 0.566 with AT9283 + AZD7762 (first compound 0.03 µM); 0.208 with AT9283 + AZD7762 (first compound 0.09487 µM); 0.163 in the experiment with AT9283 + AZD7762 (first compound 0.3 µM); 0.959 with AT9283 + Vorinostat (first compound 0.003 µM); 0.576 with AT9283 + Vorinostat (first compound 0.03 µM); 0.3 with AT9283 + Vorinostat (first compound 0.09487 µM). Further, the relative viability with AT9283 + Vorinostat (first compound 0.3 µM) is 0.24.

NCI-H1975: the relative viability with Erlotinib + Decitabine (first compound 0.02 µM) was found to be 0.431; with Erlotinib + Decitabine (first compound 0.2 µM), 0.402; with Erlotinib + Decitabine (first compound 0.6325 µM), 0.409; with Erlotinib + Decitabine (first compound 2 µM), 0.332; in the experiment with AT9283 + Navitoclax (first compound 0.003 µM) it was 1.11; in the experiment with AT9283 + Navitoclax (first compound 0.03 µM) it was 1.18. For the same cell line, the relative viability stood at 0.971 in the experiment with AT9283 + Navitoclax (first compound 0.09487 µM); 0.282 in the experiment with AT9283 + Navitoclax (first compound 0.3 µM); 0.26 in the experiment with AT9283 + Pictilisib (first compound 0.003 µM); 0.179 in the experiment with AT9283 + Pictilisib (first compound 0.03 µM); 0.18 in the experiment with AT9283 + Pictilisib (first compound 0.09487 µM); 0.165 in the experiment with AT9283 + Pictilisib (first compound 0.3 µM). Also, the relative viability came out at 0.7 with AT9283 + AZD7762 (first compound 0.003 µM); 0.711 with AT9283 + AZD7762 (first compound 0.03 µM); 0.622 with AT9283 + AZD7762 (first compound 0.09487 µM); 0.458 with AT9283 + AZD7762 (first compound 0.3 µM); 0.742 in the experiment with AT9283 + Vorinostat (first compound 0.003 µM); 0.666 in the experiment with AT9283 + Vorinostat (first compound 0.03 µM). Further, the relative viability with AT9283 + Vorinostat (first compound 0.09487 µM) turned out to be 0.504; with AT9283 + Vorinostat (first compound 0.3 µM), 0.281.

Regarding EKVX, the relative viability with Erlotinib + Decitabine (first compound 0.02 µM) is 0.341; in the experiment with Erlotinib + Decitabine (first compound 0.2 µM) it was 0.232; with Erlotinib + Decitabine (first compound 0.6325 µM), 0.234; in the experiment with Erlotinib + Decitabine (first compound 2 µM), 0.212; with AT9283 + Navitoclax (first compound 0.003 µM) it was 0.697; in the experiment with AT9283 + Navitoclax (first compound 0.03 µM), 0.861. In addition, the relative viability in the experiment with AT9283 + Navitoclax (first compound 0.09487 µM) was 0.435; in the experiment with AT9283 + Navitoclax (first compound 0.3 µM) it was 0.264; with AT9283 + Pictilisib (first compound 0.003 µM), 0.419; with AT9283 + Pictilisib (first compound 0.03 µM), 0.411; in the experiment with AT9283 + Pictilisib (first compound 0.09487 µM), 0.199; in the experiment with AT9283 + Pictilisib (first compound 0.3 µM) it was 0.142. The relative viability with AT9283 + AZD7762 (first compound 0.003 µM) was determined as 0.647; in the experiment with AT9283 + AZD7762 (first compound 0.03 µM) it was 0.56; with AT9283 + AZD7762 (first compound 0.09487 µM), 0.584; with AT9283 + AZD7762 (first compound 0.3 µM), 0.289; in the experiment with AT9283 + Vorinostat (first compound 0.003 µM), 0.673; with AT9283 + Vorinostat (first compound 0.03 µM), 0.545. Further, the relative viability was 0.302 with AT9283 + Vorinostat (first compound 0.09487 µM) and 0.287 in the experiment with AT9283 + Vorinostat (first compound 0.3 µM).
